Reference: US20030125234A1, “Alteration of protein stability” (priority 2001, published 2003)
“Also recorded” adds a separate entry of the source. Residues, ends and D or L forms follow the SMILES beside them.

Experiments:
Type in all cases: biochemical
[1] = molecular target: T1, chicken egg white lysozyme (Gallus gallus, UniProt P00698); experiment: Lysozyme aggregation (turbidity at 360 nm) induced by DTT; details: for inhibition index: Lysozyme 0.4 mg/mL, 25° C., DTT, compound 1,000×, standard deviation in parenthesis
T1 construct: chicken egg white lysozyme [Sigma]; purchased Sigma; host or cells: egg white
T1 sequence (P00698 19-147): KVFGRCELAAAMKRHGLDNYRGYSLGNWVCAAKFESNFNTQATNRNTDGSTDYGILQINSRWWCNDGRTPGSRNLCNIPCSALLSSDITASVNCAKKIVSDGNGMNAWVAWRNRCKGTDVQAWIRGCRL
Procedure: (§1) Bovine insulin [Sigma, St. Louis, Mo., USA] was dissolved in phosphate saline (PBS) (50 mM sodium biphosphate, 100 mM sodium chloride), pH 7.0, bovine alpha-lactalbumin [Sigma] in 50 mM sodium phosphate, 100 mM sodium chloride and 2 mM EDTA, pH 6.2, chicken egg white lysozyme [Sigma] in 100 mM Tris, 1 mM EDTA, pH 8.2, human acidic fibroblast growth factor (FGF-1) in 6.2 mM sodium biphosphate, 120 mM sodium chloride, pH 7.2, porcine somatotropin (pST) [provided by Pfizer, Inc., Groton, Conn., USA] in 10 mM phosphate, pH 6. 1, human apolactoferrin (HLF) [Sigma] in 20 mM HEPES, 154 mM NaCl, pH 7.4, porcine heart citrate synthase (CS) in 40 mM HEPES, 50 mM KCl, 10 mM (NH4)2SO4 mM potassium acetate, pH 7.8, and yeast alcohol dehydrogenase (ADH) [Sigma] in pH 7.0 PBS. Selection of buffer solutions was based on an extensive series of preliminary studies to obtain appropriate insolubilization kinetics as described below.
(§2) Copper O-phenanthroline (1,10-phenanthroline) was prepared by mixing copper sulfate hexahydrate [Fisher] and o-phenanthroline [Sigma] in a 1:2 ratio. 1 M Dithiothreitol (DTT) was prepared at pH 7.0 PBS. Polyethylene glycol (M.W. 8000, Union Carbide, Danbury, Conn., USA) (PEG) was prepared at 20 mg/mL in 10 mM phosphate, pH 6.1.
(§3) The following compounds were obtained from Sigma and used without further purification: oxalic acid, sodium malonate, succinic acid, glutaric acid, adipic acid, pimelic acid, suberic acid, azelaic acid, guanidine hydrochloride, ammonium formate, beta-alanine, 4-aminobutyric acid, 5-aminovaleric acid, 6-aminocaproic acid, 7-aminoheptanoic acid, hydrazine, ethylenediamine, 1,3-diaminopropane, 1,4-diaminobutane, 1,5-diaminopentane, 1,6-diaminohexane, 1,7-diaminoheptane, Glu-Glu, Glu-Lys, Lys-Lys, diglycine, triglycine, tetraglycine, pentaglycine, and hexaglycine. […] Triglycine and tetraglycine were dissolved in pH 8.6 PBS, while pentaglycine and hexaglycine were dissolved in pH 10.6 PBS.
(§4) Each was either dissolved in pH 7.0 PBS, or pH 6.1 10 mM phosphate, and adjusted to the same pH.
(§5) Protein aggregation was monitored for 1 hour at 360 nm using an HP8453 UV-visible spectrophotometer system [Hewlett Packard, Germany]. […] Insulin (0.25 mg/mL (4.39E-5 M)) aggregation was monitored at 25° C. after addition of potential inhibitors and 20 μL of 1 M DTT (1.27E-4 M). Alpha-lactabumin (0.4 mg/mL (2.82E-5 M)) aggregation was monitored at 37° C. in the presence of 20 μL of 1 M DTT (1.27E-4 M). Lysozyme (0.4 mg/mL (2.86E-5 M)) aggregation was monitored at 25° C. in the presence of 20 μL of 1 M DTT (1.27E-4 M). FGF-1 (50 μg/mL (3.12E-6 M)) aggregation was monitored at 50° C. Porcine somatotropin (1.27 mg/mL (5.76E-5 M)) aggregation was monitored at 60° C. in the presence of PEG 8000 (20 mg/mL) which was included to enhance the protein association process through a simple exclusion volume effect. HLF (0.4 mg/mL (5.23E-6 M)) aggregation was monitored at 43° C. in the presence of 1.27E-4 M DTT. Citrate synthase (96 μg/mL (9.80E-7 M)) aggregation was monitored at45° C. ADH (1 mg/mL (7.14E-6 M)) was monitored at 37° C. following the addition of 7.76E-5 M Cu(OP)2. Aggregation was compared to protein in the absence of the particular dipolar compound. After stirring, experiments were initiated by the addition of proteins followed by stressing reagents to 1 cm pathlength cuvettes employing a seven-position thermostatted sample holder that was cycled at 30-second intervals. Alternatively, a microtiter plate reader was employed under the same conditions in a 96 well format.
(§6) All optical density (OD)360nm versus time results were exported into Excel [Microsoft] for data analysis.

[2] = molecular target: T2, bovine alpha-lactalbumin (Bos taurus, UniProt P00711); experiment: Alpha-lactalbumin aggregation (turbidity at 360 nm) induced by DTT; details: for inhibition index: α Lactalbumin 0.4 mg/mL, 37° C., DTT, compound 1,000×, standard deviation in parenthesis
T2 construct: purchased Sigma
T2 sequence (P00711 20-142): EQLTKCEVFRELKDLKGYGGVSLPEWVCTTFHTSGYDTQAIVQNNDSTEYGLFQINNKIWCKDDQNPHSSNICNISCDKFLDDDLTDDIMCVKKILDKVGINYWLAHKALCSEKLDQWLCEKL
Procedure: as §1, §2, §3, §4, §5, §6

[3] = molecular target: T3, human apolactoferrin (HLF) (Homo sapiens, UniProt P02788); experiment: HLF aggregation (turbidity at 360 nm) induced by DTT; details: for inhibition index: HLF 0.4 mg/mL, 43° C., DTT, head 10,000×, standard deviation in parenthesis
T3 construct: purchased Sigma
T3 sequence (P02788 20-710): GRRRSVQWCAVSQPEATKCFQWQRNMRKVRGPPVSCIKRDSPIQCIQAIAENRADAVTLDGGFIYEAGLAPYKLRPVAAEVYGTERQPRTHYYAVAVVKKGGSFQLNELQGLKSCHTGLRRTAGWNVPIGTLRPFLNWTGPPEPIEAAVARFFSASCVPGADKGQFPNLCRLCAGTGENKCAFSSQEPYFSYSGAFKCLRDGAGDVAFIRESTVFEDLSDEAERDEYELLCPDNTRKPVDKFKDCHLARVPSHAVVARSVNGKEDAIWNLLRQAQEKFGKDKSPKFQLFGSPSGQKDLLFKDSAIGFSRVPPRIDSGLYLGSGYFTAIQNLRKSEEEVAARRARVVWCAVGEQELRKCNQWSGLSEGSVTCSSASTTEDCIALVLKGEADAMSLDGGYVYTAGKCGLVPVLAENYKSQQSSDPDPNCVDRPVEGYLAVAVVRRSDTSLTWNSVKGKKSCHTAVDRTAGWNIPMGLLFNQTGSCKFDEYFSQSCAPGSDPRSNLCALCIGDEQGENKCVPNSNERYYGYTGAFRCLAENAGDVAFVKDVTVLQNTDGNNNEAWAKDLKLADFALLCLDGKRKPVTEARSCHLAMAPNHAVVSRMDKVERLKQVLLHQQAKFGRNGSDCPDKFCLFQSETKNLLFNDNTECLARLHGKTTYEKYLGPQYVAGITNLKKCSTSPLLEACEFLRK
Procedure: as §1, §2, §3, §4, §5, §6

[4] = molecular target: T4, yeast alcohol dehydrogenase (ADH) (Saccharomyces cerevisiae, UniProt P00330); experiment: ADH oxidation-induced aggregation (turbidity at 360 nm), Cu(OP)2; details: for inhibition index: ADH 1 mg/mL, 37° C., Cu(OP)2; for inhibition of ADH aggregation, in words: FIG. 1
T4 construct: purchased Sigma
T4 sequence (P00330 2-348 limits assumed): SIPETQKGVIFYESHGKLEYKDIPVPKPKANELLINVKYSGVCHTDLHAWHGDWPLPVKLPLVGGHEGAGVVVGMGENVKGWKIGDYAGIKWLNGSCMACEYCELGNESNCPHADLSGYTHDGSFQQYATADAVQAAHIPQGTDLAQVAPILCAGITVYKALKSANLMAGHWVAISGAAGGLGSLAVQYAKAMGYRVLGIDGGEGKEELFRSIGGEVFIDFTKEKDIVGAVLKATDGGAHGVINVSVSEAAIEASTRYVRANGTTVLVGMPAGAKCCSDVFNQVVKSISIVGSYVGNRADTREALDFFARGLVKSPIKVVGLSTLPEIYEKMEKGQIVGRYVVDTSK
Procedure: as §1, §2, §3, §4, §5, §6

[5] = compound 10,000X molar excess, Infinite = complete inhibition of aggregation over one hour
[6] = compound 1,000X, standard deviation in parenthesis

Compound | inhibition index [1] | inhibition of α-lactalbumin aggregation, in words [2] | inhibition index [2] | inhibition index ([3]; second HLF column) | inhibition index [4, 5] | inhibition index ([3]; first HLF column) | inhibition index [4, 6] | inhibition of ADH aggregation, in words [4] | inhibition of lactoferrin (HLF) aggregation, in words [3] | inhibition of lysozyme aggregation, in words [1]
NCCCCCCC(=O)O [7-aminoheptanoate, 7-aminoheptanoic acid] | 1.3 (0.2) | Potent inhibitors | 3.9 (2.1) | 4.7 (0.7) | 4.9 (0.5) |  |  |  |  | 
O=C(O)CCCCCC(=O)O [pimelate, pimelic acid] | 2.0 (0.7) |  | 1.3 (0.3) | 78.9 (68.2) | 9.0 (1.3) |  |  |  |  | 
Lys-Lys | 1.3 (0.1) |  | 1.0 (0.1) | 11.2 | 2.7 | 13.5 (1.2) | 1.4 (0.2) |  |  | 
NCCCCCN [1,5-diaminopentane] | 1.3 (0.3) |  | 0.9 (0.0) | 28.8 (13.3) | 0.9 (0.0) |  |  |  |  | 
NCC(=O)NCC(=O)NCC(=O)O [triglycine] (H-Gly-Gly-Gly-OH) | 1.6 (0.3) |  | 0.9 (0.1) | 5.7 (4.0) | 187.6 (46.1) | 0.2 (0.1) | 5.0 (1.4) |  |  | 
NCCCCCC(=O)O [6-aminocaproate, 6-aminocaproic acid] | 0.8 (0.2) |  | 2.3 (0.6) | 7.9 (3.4) | 3.2 (0.3) |  |  |  |  | 
O=C(O)CCC(=O)O [succinate, succinic acid] | 1.0 (0.3) |  | 1.1 (0.3) | 33.7 (11.9) | 2.7 (0.7) |  |  |  |  | 
O=C(O)C(=O)O [oxalate, oxalic acid] | 1.6 (1.0) |  | 1.3 (0.2) | 666.9 |  |  |  | most potent inhibitor; also recorded: effective inhibitors |  | 
NCCC(=O)O [beta-alanine] | 1.1 (0.3) |  | 2.1 (0.4) | 24.2 (4.4) | 2.2 (0.3) |  |  |  | effective inhibitors | 
Glu-Glu | 1.2 (0.7) |  | 1.0 (0.1) | 2.1 | 5.3 (1.2) | 9.8 (0.8) | 1.4 (0.2) |  |  | 
NCCCCN [1,4-diaminobutane] | 1.6 (0.2) |  | 1.0 (0.2) | 34.5 (13.0) | 0.8 (0.1) |  |  |  |  | 
O=C(O)CCCC(=O)O [glutarate, glutaric acid] | 1.2 (0.3) |  | 1.1 (0.2) | 49.7 (28.9) | 1.8 (0.4) |  |  |  |  | 
diglycine | 0.9 (0.0) |  | 1.0 (0.0) | 10.0 | 0.7 (0.1) | 7.4 (1.0) | 4.0 (0.9) |  |  | 
NCC(=O)O [glycine] | 1.0 (0.2) |  | 1.4 (0.3) | 1.5 (0.1) | 54.3 (4.5) |  |  | Potent inhibition; also recorded: effective inhibitors |  | 
NCCCN [1,3-diaminopropane] | 2.7 (0.4) |  | 0.9 (0.3) | 31.5 (12.0) | 0.7 (0.1) |  |  |  |  | 
NCCN [ethylenediamine] | 70.2 (6.8) |  | 0.7 (0.4) | 44.5 (13.9) | 202.6 (69.7) |  |  | effective inhibitors |  | effective inhibitors; also recorded: strongly inhibited
NCCCCCCN [1,6-diaminohexane] | 1.0 (0.1) |  | 1.3 (0.4) | 18.0 (4.9) | 0.8 (0.0) |  |  |  |  | 
tetraglycine | 2.1 (0.5) |  | 1.3 (0.4) | 0.1 | 5313.1 | 8.3 (9.5) | 8.4 (2.7) |  |  | 
pentaglycine | 0.2 (0.1) | Potent inhibitors | 3.1 (1.2) | 0.5 (0.0) | Infinite^4 | 979.0 (7.5) | 5.8 (3.1) |  |  | 
NCCCCCCCN [1,7-diaminoheptane] | 1.0 (0.3) |  | 1.8 (0.7) | 11.0 (2.1) | 0.6 (0.1) |  |  |  |  | 
O=C(O)CCCCCCC(=O)O [suberate, suberic acid] | 1.4 (0.2) |  | 2.0 (0.7) | 95.4 (34.6) | 15.5 (1.4) |  |  |  |  | 
NCCCCC(=O)O [5-aminovalerate, 5-aminovaleric acid] | 1.5 (0.4) |  | 2.1 (0.8) | 8.4 (2.6) | 2.7 (0.9) |  |  |  |  | 
O=C(O)CCCCC(=O)O [adipate, adipic acid] | 1.4 (0.8) |  | 1.2 (0.3) | 113.0 | 4.9 (0.9) |  |  |  |  | 
NCCCC(=O)O [4-aminobuytrate, 4-aminobutyric acid] | 1.4 (0.4) |  | 2.0 (0.8) | 9.5 (1.9) | 2.0 (0.1) |  |  |  |  | 
O=C([O-])CC(=O)[O-].[Na+].[Na+] [malonate, sodium malonate] | 1.5 (0.4) |  | 1.8 (0.1) | 1714.1 | 18.9 (6.6) |  |  |  |  | 
